{"source": "paper PMC10698194", "about": "(Nature Communications, 2023)", "key": {"mouse KOR [1]": {"target": "T1, mouse KOR (Mus musculus, UniProt P33534)", "T1 sequence (P33534 whole entry)": "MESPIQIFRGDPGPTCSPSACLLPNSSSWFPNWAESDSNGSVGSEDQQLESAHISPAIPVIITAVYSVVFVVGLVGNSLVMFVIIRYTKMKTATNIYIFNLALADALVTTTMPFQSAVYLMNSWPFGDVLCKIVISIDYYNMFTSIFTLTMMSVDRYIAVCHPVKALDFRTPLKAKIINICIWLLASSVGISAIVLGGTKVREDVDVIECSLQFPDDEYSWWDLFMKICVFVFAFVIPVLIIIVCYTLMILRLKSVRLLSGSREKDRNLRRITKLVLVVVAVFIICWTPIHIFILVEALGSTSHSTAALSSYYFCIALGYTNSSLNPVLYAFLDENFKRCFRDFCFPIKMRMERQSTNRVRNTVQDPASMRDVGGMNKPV", "test": "cell-based", "set-up": "expressed in transfected cells", "details": "for Emax: HEK-293T, read-out: Emax cAMP assay; for EC50: read-out: EC50 cAMP assay"}, "mouse KOR [2]": {"target": "T1, mouse KOR", "test": "biochemical", "type": "binding", "set-up": "expressed in transfected cells", "details": "for specific [3H]DPN binding, normalized to 100%: replicates; for Ki: [3H]DPN 1 nM, read-out: Ki"}}, "note": "Several values for one entry are separate records, joined by “and”; a condition that tells them apart may be missing. Identical values can stand only once. Bridge positions count the residues as written; N and C are the ends. Square brackets hold non-standard residues; d marks the D form. Peptide text beside a SMILES is read from it. * marks the point of attachment. X1 = C=CCN1CC[C@]23c4c5ccc(O)c4O[C@H]2[C@H](N*)CC[C@@]3(O)[C@H]1C5", "data": [{"smiles": "C=CCN1CC[C@]23c4c5ccc(O)c4O[C@H]2[C@H](NC(=O)[C@@H](Cc2ccccc2)NC(=O)[C@H](CO)NC(=O)[C@@H]2CSCC(=O)N[C@H]([C@H](C)O)C(=O)N[C@@H](CC(N)=O)C(=O)N[C@H](CCC(=O)O)C(=O)N[C@H](CO)C(=O)N[C@H](CC(C)C)C(=O)N2)CC[C@@]3(O)[C@H]1C5", "note": "[DNCP-β-NalA(2)] ({CH2CO}-[dT]N[dE][dS][dL]CS[dF]-X1; thioether N-6)", "values": [{"measurement": "Emax", "setting": "mouse KOR [1]", "value": "89 ± 2", "unit": "%"}, {"measurement": "EC50", "setting": "mouse KOR [1]", "value": 7.5, "unit": "nM"}, {"measurement": "specific [3H]DPN binding, normalized to 100%", "setting": "mouse KOR [2]; Log [ligand] (M) -5", "value": "0.2531 and 1.3817 and 8.417"}, {"measurement": "specific [3H]DPN binding, normalized to 100%", "setting": "mouse KOR [2]; Log [ligand] (M) -5.5", "value": "5.254 and 5.706 and 15.2738"}, {"measurement": "specific [3H]DPN binding, normalized to 100%", "setting": "mouse KOR [2]; Log [ligand] (M) -6", "value": "8.812 and 8.467 and 22.3516"}, {"measurement": "specific [3H]DPN binding, normalized to 100%", "setting": "mouse KOR [2]; Log [ligand] (M) -6.5", "value": "20.0364 and 16.1798 and 28.5928"}, {"measurement": "specific [3H]DPN binding, normalized to 100%", "setting": "mouse KOR [2]; Log [ligand] (M) -7", "value": "30.6965 and 29.2448 and 46.3656"}, {"measurement": "specific [3H]DPN binding, normalized to 100%", "setting": "mouse KOR [2]; Log [ligand] (M) -7.5", "value": "73.9679 and 58.4159 and 82.1752"}, {"measurement": "specific [3H]DPN binding, normalized to 100%", "setting": "mouse KOR [2]; Log [ligand] (M) -8", "value": "84.0925 and 77.2121 and 90.6295"}, {"measurement": "specific [3H]DPN binding, normalized to 100%", "setting": "mouse KOR [2]; Log [ligand] (M) -8.5", "value": "94.004 and 85.6847 and 98.8664"}, {"measurement": "specific [3H]DPN binding, normalized to 100%", "setting": "mouse KOR [2]; Log [ligand] (M) -9", "value": "85.0018 and 88.1692 and 96.9444"}, {"measurement": "specific [3H]DPN binding, normalized to 100%", "setting": "mouse KOR [2]; Log [ligand] (M) -9.5", "value": 100}, {"measurement": "Ki", "setting": "mouse KOR [2]", "value": 31, "unit": "nM"}]}, {"smiles": "C=CCN1CC[C@]23c4c5ccc(O)c4O[C@H]2[C@H](NC(=O)[C@@H](Cc2ccccc2)NC(=O)[C@@H](NC(=O)[C@@H]2CSCC(=O)N[C@@H](CC(=O)O)C(=O)N[C@@H](C)C(=O)N[C@H](Cc4ccc(O)cc4)C(=O)N[C@H](C)C(=O)N[C@@H](C(C)C)C(=O)N2)[C@@H](C)O)CC[C@@]3(O)[C@H]1C5", "note": "[DNCP-β-NalA(3)] ({CH2CO}-DA[dY][dA]VCT[dF]-X1; thioether N-6)", "values": [{"measurement": "Emax", "setting": "mouse KOR [1]", "value": "99 ± 1", "unit": "%"}, {"measurement": "EC50", "setting": "mouse KOR [1]", "value": 14, "unit": "nM"}, {"measurement": "specific [3H]DPN binding, normalized to 100%", "setting": "mouse KOR [2]; Log [ligand] (M) -5", "value": "4.711 and 4.268 and 3.134"}, {"measurement": "specific [3H]DPN binding, normalized to 100%", "setting": "mouse KOR [2]; Log [ligand] (M) -5.5", "value": "9.049 and 8.477 and 7.931"}, {"measurement": "specific [3H]DPN binding, normalized to 100%", "setting": "mouse KOR [2]; Log [ligand] (M) -6", "value": "13.9379 and 12.8705 and 12.6183"}, {"measurement": "specific [3H]DPN binding, normalized to 100%", "setting": "mouse KOR [2]; Log [ligand] (M) -6.5", "value": "21.3908 and 20.9203 and 21.0807"}, {"measurement": "specific [3H]DPN binding, normalized to 100%", "setting": "mouse KOR [2]; Log [ligand] (M) -7", "value": "41.59 and 36.2221 and 28.4597"}, {"measurement": "specific [3H]DPN binding, normalized to 100%", "setting": "mouse KOR [2]; Log [ligand] (M) -7.5", "value": "75.8729 and 62.6776 and 54.9604"}, {"measurement": "specific [3H]DPN binding, normalized to 100%", "setting": "mouse KOR [2]; Log [ligand] (M) -8", "value": "98.7879 and 86.9193 and 89.7517"}, {"measurement": "specific [3H]DPN binding, normalized to 100%", "setting": "mouse KOR [2]; Log [ligand] (M) -8.5", "value": "102.113 and 95.9134 and 97.9933"}, {"measurement": "specific [3H]DPN binding, normalized to 100%", "setting": "mouse KOR [2]; Log [ligand] (M) -9", "value": "101.53 and 101.749 and 103.107"}, {"measurement": "specific [3H]DPN binding, normalized to 100%", "setting": "mouse KOR [2]; Log [ligand] (M) -9.5", "value": 100}, {"measurement": "Ki", "setting": "mouse KOR [2]", "value": 24, "unit": "nM"}]}, {"smiles": "C=CCN1CC[C@]23c4c5ccc(O)c4O[C@H]2[C@H](NC(=O)[C@@H](Cc2ccccc2)NC(=O)[C@H](CO)NC(=O)[C@@H]2CSCC(=O)N[C@H](CO)C(=O)N[C@H](CC(=O)O)C(=O)N[C@H](Cc4c[nH]cn4)C(=O)N[C@@H](C)C(=O)N[C@@H](C)C(=O)N2)CC[C@@]3(O)[C@H]1C5", "note": "[DNCP-β-NalA(4)]", "values": [{"measurement": "Emax", "setting": "mouse KOR [1]", "value": "101 ± 2", "unit": "%"}, {"measurement": "EC50", "setting": "mouse KOR [1]", "value": 1, "unit": "nM"}, {"measurement": "specific [3H]DPN binding, normalized to 100%", "setting": "mouse KOR [2]; Log [ligand] (M) -5", "value": "7 and 5.59 and 5.4127"}, {"measurement": "specific [3H]DPN binding, normalized to 100%", "setting": "mouse KOR [2]; Log [ligand] (M) -5.5", "value": "12.4013 and 7.976 and 9.019"}, {"measurement": "specific [3H]DPN binding, normalized to 100%", "setting": "mouse KOR [2]; Log [ligand] (M) -6", "value": "12.817 and 12.3329 and 11.7119"}, {"measurement": "specific [3H]DPN binding, normalized to 100%", "setting": "mouse KOR [2]; Log [ligand] (M) -6.5", "value": "19.572 and 16.0481 and 16.106"}, {"measurement": "specific [3H]DPN binding, normalized to 100%", "setting": "mouse KOR [2]; Log [ligand] (M) -7", "value": "34.7156 and 27.5243 and 29.2083"}, {"measurement": "specific [3H]DPN binding, normalized to 100%", "setting": "mouse KOR [2]; Log [ligand] (M) -7.5", "value": "62.865 and 48.8054 and 54.3277"}, {"measurement": "specific [3H]DPN binding, normalized to 100%", "setting": "mouse KOR [2]; Log [ligand] (M) -8", "value": "85.7392 and 63.6235 and 68.5184"}, {"measurement": "specific [3H]DPN binding, normalized to 100%", "setting": "mouse KOR [2]; Log [ligand] (M) -8.5", "value": "110.569 and 79.1117 and 88.8606"}, {"measurement": "specific [3H]DPN binding, normalized to 100%", "setting": "mouse KOR [2]; Log [ligand] (M) -9", "value": "116.546 and 94.2824 and 100.104"}, {"measurement": "specific [3H]DPN binding, normalized to 100%", "setting": "mouse KOR [2]; Log [ligand] (M) -9.5", "value": 100}]}]}
